We go through 23 molecules from ChEMBL document CHEMBL1201862, “PubChem BioAssay data set” (2004).

Test systems include KM-20L2; DLD-1; XF498; M19-MEL; SNB-78; DMS-273; RXF 631; DMS-114; HOP-18.
Assay in all cases: NCI tumour cell line growth inhibition, 48 h

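1) Cells in 96-well plates. 2) Compound, 48 h, 5 concentrations. 3) Linear interpolation between surrounding doses. 4) Unreached endpoint = highest concentration. GI50 = concentration required for 50% inhibition of growth.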 The source made the active and inactive calls. Cut-off read from the data, not from the text of the source: active = GI50 up to about 1.1 µM and inactive = higher.

With `N#C/C(=C\c1cc(O)c(O)c(O)c1)C(N)=O`, the GI50 with KM-20L2 is 74.1 µM (inactive); in the assay on DLD-1, > 100 µM (inactive); in the assay on XF498 it was > 100 µM (inactive); with M19-MEL, 45.3 µM (inactive); in the assay with SNB-78, > 100 µM (inactive); in the assay on DMS-273 it was > 100 µM (inactive). In addition, the GI50 in the assay with RXF 631 and with DMS-114 was > 100 µM (inactive) each time.
Take `CCN1CCC(O)(c2ccccc2)C(C(=O)c2ccccc2)C1` (stereo unspecified): the GI50 with KM-20L2 is 32 µM (inactive); in the assay on DLD-1, 19.4 µM (inactive); in the assay on XF498 it was 16.3 µM (inactive); in the assay with M19-MEL, 26.7 µM (inactive); in the assay on SNB-78, 26.7 µM (inactive); with DMS-273, > 94.4 µM (inactive). Further, the values for the GI50 with HOP-18 and in the assay with DMS-114 were 14.7 µM (inactive) and 29.9 µM (inactive), respectively.
`S=c1sc2sc(=S)sc2s1`: the GI50 in the assay on KM-20L2 was 70.3 µM (inactive); in the assay with DLD-1, 37.1 µM (inactive); with M19-MEL, 28.6 µM (inactive); in the assay with SNB-78, 54.5 µM (inactive); in the assay on DMS-273, > 100 µM (inactive); in the assay with RXF 631, 18.7 µM (inactive). Besides, the GI50 in the assay with HOP-18 was > 100 µM (inactive).
For `NCC1(N2CCOCC2)C2CCCC21CNc1ccccc1` (stereo unspecified), the GI50 in the assay on DLD-1 was > 100 µM (inactive); with XF498, 69.8 µM (inactive); with M19-MEL, > 100 µM (inactive); in the assay on SNB-78, > 100 µM (inactive); with DMS-273, > 100 µM (inactive); with RXF 631, > 100 µM (inactive). Moreover, the GI50 in the assay on HOP-18 and in the assay with DMS-114 was > 100 µM (inactive) each time.
In the case of `CSC1=Nc2ccccc2N=C(c2ccc(Cl)cc2)C1`, the GI50 was 35.5 µM (inactive) in the assay with KM-20L2; 25.9 µM (inactive) with DLD-1; 36.5 µM (inactive) in the assay on XF498; 36.3 µM (inactive) in the assay with M19-MEL; 52.5 µM (inactive) with SNB-78; 0.0877 µM (active) in the assay on HOP-18.
Regarding `CC1=NN(C(=O)CC(=O)Nc2ccccc2F)C(=O)C1/N=N/c1ccccc1[N+](=O)[O-]` (stereo unspecified), the GI50 is > 100 µM (inactive) in the assay on KM-20L2; 83 µM (inactive) in the assay with DLD-1; > 100 µM (inactive) in the assay with XF498; 18.7 µM (inactive) with M19-MEL; 87.3 µM (inactive) with SNB-78; 49.9 µM (inactive) in the assay on DMS-273. In the assay on DMS-114, the GI50 was 57.9 µM (inactive).
On to `C=C1CN2CCc3c([nH]c4ccccc34)C2CC1CC(=O)N(C)C` (stereo unspecified), for which the GI50 in the assay on KM-20L2, in the assay with DLD-1, in the assay on XF498, with M19-MEL, in the assay with DMS-273 and in the assay on HOP-18 was > 309 µM (inactive) in each case. In addition, the GI50 in the assay on DMS-114 is > 309 µM (inactive).
Consider `COC1=C(OC)CCC(/C(C#N)=C/c2ccc(OC)c(OC)c2)=C1`, for which the GI50 is > 100 µM (inactive) in the assay with KM-20L2; > 100 µM (inactive) in the assay with DLD-1; > 100 µM (inactive) in the assay with M19-MEL; 53.2 µM (inactive) with SNB-78; 49.8 µM (inactive) in the assay with DMS-273; > 100 µM (inactive) in the assay on RXF 631. Besides, the values for the GI50 in the assay with HOP-18 and in the assay on DMS-114 were > 100 µM (inactive) and 31.6 µM (inactive), respectively.
Turning to `COC(=O)CC(NC(=O)OCc1ccccc1)C(C(C)=O)C(=O)OCc1ccccc1` (stereo unspecified), the GI50 was > 31.6 µM (inactive) in the assay on KM-20L2; > 31.6 µM (inactive) with DLD-1; > 10 µM (inactive) in the assay on XF498; > 31.6 µM (inactive) with M19-MEL; > 31.6 µM (inactive) with SNB-78; > 31.6 µM (inactive) in the assay with DMS-273. In addition, the GI50 was > 10 µM (inactive) with RXF 631, > 31.6 µM (inactive) in the assay with HOP-18 and > 31.6 µM (inactive) in the assay on DMS-114.
In the case of `CN(C)/C(=N/C(=O)Nc1ccccc1)SCc1ccccc1`, the GI50 was 65.3 µM (inactive) in the assay on DLD-1; 6.43 µM (inactive) with XF498; > 100 µM (inactive) with M19-MEL; > 100 µM (inactive) in the assay with SNB-78; > 100 µM (inactive) with DMS-273; 64.9 µM (inactive) in the assay on HOP-18. Besides, the GI50 in the assay with DMS-114 was 67.5 µM (inactive).
For `O=C(O)CC12C3C4C5C3C1C5C42` (stereo unspecified), the GI50 in the assay on KM-20L2, in the assay on DLD-1, with XF498, in the assay on M19-MEL, in the assay on SNB-78 and with DMS-273 was > 100 µM (inactive) each time. Also, the GI50 in the assay on DMS-114 is > 100 µM (inactive).
In the case of `CN(C)CC1CCC(CN(C)C)C1=O` (stereo unspecified), the GI50 is 17.4 µM (inactive) in the assay on KM-20L2; 2.05 µM (inactive) in the assay with DLD-1; 5.69 µM (inactive) in the assay on XF498; 3.43 µM (inactive) with M19-MEL; 5.83 µM (inactive) with SNB-78; 17.1 µM (inactive) in the assay on DMS-273. The figures for the GI50 in the assay with HOP-18 and with DMS-114 were 18.8 µM (inactive) and 5.92 µM (inactive), respectively.
For the molecule `CCCCCCCCCCCCCC1CCC(CC)N1` (stereo unspecified), the GI50 is 13.3 µM (inactive) in the assay with KM-20L2; 14.9 µM (inactive) in the assay with DLD-1; 3.18 µM (inactive) in the assay with M19-MEL; 13 µM (inactive) with SNB-78; 14.5 µM (inactive) in the assay on DMS-273; 17.1 µM (inactive) in the assay with HOP-18. Also, the GI50 with DMS-114 is 7 µM (inactive).
As for `CC(=O)OC1COC(n2ccc3cc(Br)c([N+](=O)[O-])cc32)C(OC(C)=O)C1OC(C)=O` (stereo unspecified), the GI50 is 31 µM (inactive) in the assay with KM-20L2; 44.3 µM (inactive) in the assay on DLD-1; 14.3 µM (inactive) in the assay with XF498; 29.4 µM (inactive) in the assay with M19-MEL; 20.8 µM (inactive) with SNB-78; 29.9 µM (inactive) in the assay on DMS-273. The GI50 was 23.7 µM (inactive) in the assay with RXF 631, > 10 µM (inactive) in the assay on HOP-18 and 27.7 µM (inactive) with DMS-114.
As for `CC1(Cl)C(=O)NC(=O)N(C2CC(N=[N+]=[N-])C(CO)O2)C1N=[N+]=[N-]` (stereo unspecified), the GI50 in the assay with KM-20L2, in the assay on DLD-1, in the assay with XF498, in the assay on M19-MEL, in the assay on DMS-273 and with RXF 631 was > 100 µM (inactive) in each case. Also, the GI50 with DMS-114 is > 100 µM (inactive).
Consider `CCOC(=O)C(CNc1ccc(O)cc1)NC(=O)c1ccccc1` (stereo unspecified), for which the GI50 with KM-20L2 was > 100 µM (inactive); in the assay on DLD-1, > 100 µM (inactive); in the assay with XF498, > 100 µM (inactive); in the assay on M19-MEL, 47 µM (inactive); with SNB-78, > 100 µM (inactive); with DMS-273 it was 65 µM (inactive). The GI50 with HOP-18 is > 100 µM (inactive); with DMS-114, > 79.8 µM (inactive).
With `CC(=O)/C(=C\c1ccco1)C(=O)Nc1ccccc1`, the GI50 in the assay on DLD-1, with XF498, with M19-MEL, with SNB-78, in the assay with HOP-18 and in the assay on DMS-114 was > 100 µM (inactive) each time.
For the molecule `O=C/C1=C/C2=Cc3ccccc3C=C(/C=C(/C=O)C1)C2`, the GI50 in the assay with KM-20L2 is > 100 µM (inactive); with DLD-1, 38.4 µM (inactive); with XF498, 54.5 µM (inactive); in the assay with M19-MEL, 53.8 µM (inactive); in the assay with SNB-78 it was 52.7 µM (inactive); in the assay on DMS-273 it was 34.2 µM (inactive). Moreover, in the assay on DMS-114, the GI50 was 38.3 µM (inactive).
In the case of `CCN(CC)c1c(C)nnn1C1OC(COC(C)=O)C(OC(C)=O)C(OC(C)=O)C1OC(C)=O` (stereo unspecified), the GI50 with KM-20L2 was > 100 µM (inactive); in the assay with DLD-1 it was > 100 µM (inactive); in the assay with M19-MEL it was > 100 µM (inactive); with SNB-78, > 100 µM (inactive); in the assay with DMS-273, > 10 µM (inactive); in the assay on RXF 631 it was > 100 µM (inactive). In addition, the GI50 in the assay on HOP-18 and in the assay on DMS-114 was > 100 µM (inactive) throughout.
Consider `O=C1OC(c2ccccc2)=N/C1=C/N1CCCC1C(=O)O` (stereo unspecified), for which the GI50 with KM-20L2, with DLD-1, with XF498, in the assay with M19-MEL, in the assay on SNB-78 and with DMS-273 was > 100 µM (inactive) each time. Further, the GI50 in the assay on RXF 631, in the assay on HOP-18 and with DMS-114 was > 100 µM (inactive) throughout.
For the molecule `NNC(=O)C1CCC(=O)N1S(=O)(=O)c1ccccc1` (stereo unspecified), the GI50 in the assay with KM-20L2, in the assay on DLD-1, with XF498, with M19-MEL, in the assay with SNB-78 and in the assay on DMS-273 was > 100 µM (inactive) in each case. The GI50 in the assay with DMS-114 is > 100 µM (inactive).
Regarding `Cc1c2cc[n+](C)cc2c(C)c2c1oc1ccccc12`, the GI50 was 9.98 µM (inactive) in the assay on KM-20L2; 8.57 µM (inactive) with DLD-1; 2.64 µM (inactive) with M19-MEL; 4.02 µM (inactive) with SNB-78; 3.57 µM (inactive) in the assay with DMS-273; 6.82 µM (inactive) in the assay on HOP-18. In addition, the GI50 with DMS-114 is 1.31 µM (inactive).
For the molecule `O=C1C=C2S[C@H]3C[C@]2(C=C1Br)C1=C(N3)C(=O)c2[nH]cc3c2C1=NCC3` [(+)-DISCORHABDIN B], the GI50 is 0.463 µM (active) in the assay with KM-20L2; 0.617 µM (active) in the assay with DLD-1; 1.42 µM (inactive) in the assay on XF498; 1.78 µM (inactive) in the assay with SNB-78; 1.17 µM (inactive) in the assay with DMS-273; 1.78 µM (inactive) in the assay with HOP-18.
